Results published in patent publication US20060111289A1, “Compositions and methods of using Alpha-fetoprotein growth inhibitory peptides” (Serometrix, LLC,, priority 2004, published 2006).
Marks after values point to notes of the source that are not given here. Where a SMILES comes first, the peptide text is derived from it.

Columns and labels:
[1] = test system: LNCaP human prostate tumor cells; test: Whole-cell voltage clamp of LNCaP cells; type: cell-based; settings: peptide 10 μM, voltage ramp −100-100 mV (400 ms duration)
Description: LNCaP human prostate tumor cells were cultured on 5×5 mm plastic coverslips and were transferred to a microperfusion chamber on the stage of an inverted microscope. Whole-cell voltage clamp was accomplished with an Axopatch 200B (Axon Instr. Co., Union City, Calif.) using ruptured patches. Borosilicate glass capillaries (1.2 mm OD, 0.68 ID, type EN-I, Garner Glass Co., Claremont, Calif.) were used to fabricate patch pipettes (3-8 MΩ in the bath solution) with a Brown-Flaming horizontal micropipette puller (P-87, Sutter Instruments, San Rafael, Calif.). Patch-pipette tips were heat-polished prior to use. A micromanipulator (Narishige) fixed to the microscope positioned the pipettes. Electrode capacitance and access resistance were compensated prior to measurements. All experiments will be performed at room temperature (20-22° C.). The standard extracellular salt solution for ion currents contained (in mM): 150 NaCl, 6 KCl, 1.5 CaCl2, 1 MgCl2, 10 HEPES, 10 glucose, and pH adjusted to 7.4 with 1 N NaOH. […] Electrophysiological recordings were procured and analyzed using PClamp8 software (Axon Instr. Co, Union City, Calif.) and the WinASCD software (Guy Droogmans, Katholieke Universiteit; Leuven, B E). All results were recorded on computer hard drive or on digital audio tape (DAT). […]

MCF-7 and GI-101 cells = test: ATP luminescence cytostatic assay (6 days); type: cell-based, human; settings: peptide 10^−12 to 10^−8 M
From the text: FIG. 2 presents exemplary data for both in vivo and in vitro growth suppressive activities of the GIP-derived P149 and control peptides are depicted in GI-101 human ductal breast carcinoma and in MCF-7 human glandular breast carcinoma. • Panels A and A2: GI-101 and MCF-7 xenograft in nude mice administered P149 time-release pellets for 60 days and 30 days, respectively (N=5 mice/group). • Panels B and B2: GI-101 and MCF-7 in cell cultures treated with P149 and P187 at concentrations from 10-8 to 10-12 M for 6 days and assayed by ATP luminescence reagent employing a luciferin-luciferase system. The ATP assay, used to distinguish between cytostasis versus cytotoxicity, was used to confirm that P149 was cytostatic in its cell inhibitory activity at 6 days (see text for details).
In order to confirm whether P149 was indeed cytostatic, and not cytotoxic, an ATP-based cytostatic assay was performed which measures the decrease in cytosolic ATP during drug (i.e., for example, GIP peptide) treatment. This ATP luminescence assay has long been employed to distinguish between cytostatic versus cytotoxic chemotherapeutic sensitivity of drugs. […] After incubation of the cell cultures for 6 days, cytosolic ATP was extracted, stabilized, and quantitated from a standard curve produced from Berthold LB-96P luminometer readings using a luciferin-luciferase counting reagent.

[2] = test system: immature mouse uterine growth; test: E2-activated immature mouse uterine growth assay; type: in vivo; set-up: concentration or dose not given beside the values

Compound | Slope conductance (membrane conduction) [1] | Growth inhibition / decrease in cytosolic ATP in the ATP luminescence assay (MCF-7 and GI-101 cells) | % Inhibition Of Activity: Uterine Growth, Enzymatic Fragments [2] [%]
CC[C@H](C)[C@H](NC(=O)[C@@H]1CSSC[C@H](NC(=O)[C@H](C)NC(=O)[C@H](CC(C)C)NC(=O)[C@H](CC(C)C)NC(=O)[C@H](CCCCN)NC(=O)[C@H](CC(=O)O)NC(=O)[C@H](CCC(=O)O)NC(=O)[C@H](CO)NC(=O)[C@@H](N)CC(C)C)C(=O)NCC(=O)N[C@@H](CCC(=O)O)C(=O)NCC(=O)N[C@@H](C)C(=O)N[C@@H](C)C(=O)N[C@@H](CC(=O)O)C(=O)N[C@@H]([C@@H](C)CC)C(=O)N[C@@H]([C@@H](C)CC)C(=O)N[C@@H]([C@@H](C)CC)C(=O)NCC(=O)N[C@@H](Cc2c[nH]cn2)C(=O)N[C@@H](CC(C)C)C(=O)N1)C(=O)N[C@@H](CCCNC(=N)N)C(=O)N[C@@H](Cc1c[nH]cn1)C(=O)N[C@@H](CCC(=O)O)C(=O)N[C@@H](CCSC)C(=O)N[C@H](C(=O)N1CCC[C@H]1C(=O)N[C@H](C(=O)N[C@@H](CC(N)=O)C(=O)N1CCC[C@H]1C(=O)NCC(=O)N[C@H](C(=O)O)C(C)C)C(C)C)[C@@H](C)O [Cyclic GIP] (HELM PEPTIDE1{L.S.E.D.K.L.L.A.C.G.E.G.A.A.D.I.I.I.G.H.L.C.I.R.H.E.M.T.P.V.N.P.G.V}$PEPTIDE1,PEPTIDE1,9:R3-22:R3$$$V2.0; N-terminus and C-terminus assumed) | 0.78 0.15* nS/pF |  | 
KDFIHKQGVALQTMKQELINLVKELVKPQIEAVADFSGLL (listed as Homo sapiens) [P192, reference compound] |  | not significantly different from the non-treated control | 0
